What all share (format): biochemical
The target of one test is T1, JAK1 (Homo sapiens, UniProt P23458).
T1 construct: purchased Carna Biosciences
The experiment in a line: JAK1 microfluidic kinase assay (Caliper EZ Reader II, FAM labeled peptide substrate). An outline of the steps: (§1)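 Microfluidic mobility-shift kinase assay in 50 mM HEPES, 0.01% Brij35, 10 mM MgCl2, 2 mM DTT. IC50 values come from percent-inhibition curves normalised to uninhibited and enzyme-free controls.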

In the next test the target is T2, JAK2 (Homo sapiens, UniProt O60674).
T2 construct: purchased Carna Biosciences
The experiment in a line: JAK2 microfluidic kinase assay (Caliper EZ Reader II, FAM labeled peptide substrate). An outline of the steps:
as §1

In the next test the target is T3, JAK2V617F (Homo sapiens, UniProt O60674, V617F).
T3 construct: purchased Carna Biosciences
The experiment in a line: JAK2V617F microfluidic kinase assay (Caliper EZ Reader II, FAM labeled peptide substrate). Particulars: JAK2V617F 2.5 nM, 1 mM ATP. In a few lines: as §1

A further test concerns the target T4, TYK2 (Homo sapiens, UniProt P29597).
T4 construct: purchased Carna Biosciences
Briefly: TYK2 microfluidic kinase assay (Caliper EZ Reader II, FAM labeled peptide substrate). On the procedure: Compounds were tested against JAK1, JAK2, JAK2V617F and TYK2. Assay Formats: JAK activity was determined in the reaction buffer 50 mM HEPES, 0.01% Brij35, 10 mM MgCl2, 2 mM DTT by a microfluidic assay. The phosphorylation of a FAM labeled peptide substrate was monitored in the Caliper EZ Reader II (Perkin Elmer). The assay condition for each batch of enzyme (Carna Biosciences) was optimized to obtain 10% conversion rate of peptide substrate. The test compounds were dissolved in DMSO to a stock concentration of 10 mM. 3-fold serially diluted compounds with top concentration of 5 μM were pre-incubated with JAK1, JAK2, JAK2V617F or TYK2 at indicated concentrations for 10 min at ambient temperature. The final DMSO concentration of assay mixture was 1%. […] The reaction was stopped by adding 50 mM EDTA. The reaction time for JAK1, JAK2, JAK2V617F and TYK2 was 120 min, 20 min, 30 min and 10 min, respectively. […] And the well without compound but with equivalent DMSO was defined as no inhibition. The percent inhibition was calculated by the following formula. % Inhibition=(Conversionmax−Conversionsample)/(Conversionmax−Conversionmin)*100 • Conversionmax means the conversion rate in the positive well without addition of compound • Conversionmin means the conversion rate in the well without addition of enzyme • Conversionsample means the conversion rate of test compounds The dose-response (percent inhibition) curve was plotted and IC50 values were determined by GraphPad software.

Where [1] appears, read: IC50 JAK1 (5 nM) (1 m MATP), JAK1 5 nM, 1 mM ATP.
The mark [2] stands for this setting: IC50 JAK1 (10 nM) (Km ATP), JAK1 10 nM, Km ATP.
Setting [3] is: IC50 JAK2 ([…]) (1 mM ATP), 1 mM ATP.
The mark [4] stands for this setting: IC50 JAK2 ([…]) (Km ATP), Km ATP.
Where [5] appears, read: IC50 TYK2 ([…]) (1 mM ATP), TYK2 […], 1 mM ATP.

T4 sequence (P29597 whole entry): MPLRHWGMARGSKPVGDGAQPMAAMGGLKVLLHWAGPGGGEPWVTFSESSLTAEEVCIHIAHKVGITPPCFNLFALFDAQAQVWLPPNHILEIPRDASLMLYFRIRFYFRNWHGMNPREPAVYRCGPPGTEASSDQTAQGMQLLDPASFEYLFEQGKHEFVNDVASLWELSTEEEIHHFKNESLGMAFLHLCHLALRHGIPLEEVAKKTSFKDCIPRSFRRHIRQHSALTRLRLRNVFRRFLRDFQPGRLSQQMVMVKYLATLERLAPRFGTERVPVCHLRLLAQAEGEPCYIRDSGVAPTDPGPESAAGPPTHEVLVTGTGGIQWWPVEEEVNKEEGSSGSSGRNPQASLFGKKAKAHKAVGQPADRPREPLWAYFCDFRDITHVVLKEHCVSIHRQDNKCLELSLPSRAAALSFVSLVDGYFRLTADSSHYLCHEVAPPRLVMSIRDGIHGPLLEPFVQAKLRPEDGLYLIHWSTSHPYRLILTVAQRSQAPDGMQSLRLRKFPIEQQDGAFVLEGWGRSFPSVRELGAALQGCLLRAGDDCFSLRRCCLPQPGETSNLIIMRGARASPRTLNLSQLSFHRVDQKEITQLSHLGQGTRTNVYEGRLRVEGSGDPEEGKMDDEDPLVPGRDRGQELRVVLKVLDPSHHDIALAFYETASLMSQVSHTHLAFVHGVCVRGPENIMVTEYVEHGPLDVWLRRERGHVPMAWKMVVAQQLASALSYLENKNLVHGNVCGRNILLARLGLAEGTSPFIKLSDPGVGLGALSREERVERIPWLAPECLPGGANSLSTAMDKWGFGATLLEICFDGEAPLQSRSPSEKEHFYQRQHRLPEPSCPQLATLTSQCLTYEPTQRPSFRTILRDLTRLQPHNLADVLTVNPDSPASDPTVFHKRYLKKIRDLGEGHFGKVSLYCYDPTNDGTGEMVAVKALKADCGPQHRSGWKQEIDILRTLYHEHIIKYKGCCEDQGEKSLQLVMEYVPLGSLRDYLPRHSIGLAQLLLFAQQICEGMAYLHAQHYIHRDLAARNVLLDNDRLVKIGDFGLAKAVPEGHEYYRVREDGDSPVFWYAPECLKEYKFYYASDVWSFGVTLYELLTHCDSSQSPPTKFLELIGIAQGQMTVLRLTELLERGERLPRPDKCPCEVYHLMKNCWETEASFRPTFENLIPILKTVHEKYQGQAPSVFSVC
T3 sequence (O60674 whole entry V617F): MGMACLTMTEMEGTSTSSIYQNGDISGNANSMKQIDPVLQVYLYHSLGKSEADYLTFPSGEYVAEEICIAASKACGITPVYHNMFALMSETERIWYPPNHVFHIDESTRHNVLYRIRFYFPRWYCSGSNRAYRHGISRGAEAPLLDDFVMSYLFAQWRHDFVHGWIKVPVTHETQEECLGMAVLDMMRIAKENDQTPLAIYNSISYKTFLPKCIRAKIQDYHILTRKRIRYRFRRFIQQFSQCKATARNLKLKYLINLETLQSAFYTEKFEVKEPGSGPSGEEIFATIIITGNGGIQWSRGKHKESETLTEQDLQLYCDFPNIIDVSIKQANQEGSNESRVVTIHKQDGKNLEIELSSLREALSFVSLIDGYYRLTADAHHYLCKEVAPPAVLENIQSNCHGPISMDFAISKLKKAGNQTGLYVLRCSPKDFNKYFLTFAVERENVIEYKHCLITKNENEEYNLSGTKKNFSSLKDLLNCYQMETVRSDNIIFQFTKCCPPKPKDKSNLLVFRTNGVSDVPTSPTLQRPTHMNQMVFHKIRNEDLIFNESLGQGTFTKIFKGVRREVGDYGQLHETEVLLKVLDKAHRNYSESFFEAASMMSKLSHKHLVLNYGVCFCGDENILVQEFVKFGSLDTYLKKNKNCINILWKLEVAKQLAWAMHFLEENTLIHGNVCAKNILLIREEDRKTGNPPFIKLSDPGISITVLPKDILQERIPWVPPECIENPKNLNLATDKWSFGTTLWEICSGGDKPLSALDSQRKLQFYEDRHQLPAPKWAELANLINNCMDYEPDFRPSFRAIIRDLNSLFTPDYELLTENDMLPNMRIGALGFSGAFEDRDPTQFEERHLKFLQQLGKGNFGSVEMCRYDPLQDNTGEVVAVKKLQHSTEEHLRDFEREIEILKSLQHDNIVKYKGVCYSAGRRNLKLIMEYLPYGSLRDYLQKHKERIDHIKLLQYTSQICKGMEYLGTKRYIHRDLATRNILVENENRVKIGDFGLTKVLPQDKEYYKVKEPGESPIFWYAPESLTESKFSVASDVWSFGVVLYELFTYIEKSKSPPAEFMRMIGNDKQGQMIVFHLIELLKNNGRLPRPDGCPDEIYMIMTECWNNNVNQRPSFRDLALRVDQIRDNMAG
T2 sequence (O60674 whole entry): as the sequence (O60674 whole entry V617F) above, with F617V counted along it
T1 sequence (P23458 whole entry): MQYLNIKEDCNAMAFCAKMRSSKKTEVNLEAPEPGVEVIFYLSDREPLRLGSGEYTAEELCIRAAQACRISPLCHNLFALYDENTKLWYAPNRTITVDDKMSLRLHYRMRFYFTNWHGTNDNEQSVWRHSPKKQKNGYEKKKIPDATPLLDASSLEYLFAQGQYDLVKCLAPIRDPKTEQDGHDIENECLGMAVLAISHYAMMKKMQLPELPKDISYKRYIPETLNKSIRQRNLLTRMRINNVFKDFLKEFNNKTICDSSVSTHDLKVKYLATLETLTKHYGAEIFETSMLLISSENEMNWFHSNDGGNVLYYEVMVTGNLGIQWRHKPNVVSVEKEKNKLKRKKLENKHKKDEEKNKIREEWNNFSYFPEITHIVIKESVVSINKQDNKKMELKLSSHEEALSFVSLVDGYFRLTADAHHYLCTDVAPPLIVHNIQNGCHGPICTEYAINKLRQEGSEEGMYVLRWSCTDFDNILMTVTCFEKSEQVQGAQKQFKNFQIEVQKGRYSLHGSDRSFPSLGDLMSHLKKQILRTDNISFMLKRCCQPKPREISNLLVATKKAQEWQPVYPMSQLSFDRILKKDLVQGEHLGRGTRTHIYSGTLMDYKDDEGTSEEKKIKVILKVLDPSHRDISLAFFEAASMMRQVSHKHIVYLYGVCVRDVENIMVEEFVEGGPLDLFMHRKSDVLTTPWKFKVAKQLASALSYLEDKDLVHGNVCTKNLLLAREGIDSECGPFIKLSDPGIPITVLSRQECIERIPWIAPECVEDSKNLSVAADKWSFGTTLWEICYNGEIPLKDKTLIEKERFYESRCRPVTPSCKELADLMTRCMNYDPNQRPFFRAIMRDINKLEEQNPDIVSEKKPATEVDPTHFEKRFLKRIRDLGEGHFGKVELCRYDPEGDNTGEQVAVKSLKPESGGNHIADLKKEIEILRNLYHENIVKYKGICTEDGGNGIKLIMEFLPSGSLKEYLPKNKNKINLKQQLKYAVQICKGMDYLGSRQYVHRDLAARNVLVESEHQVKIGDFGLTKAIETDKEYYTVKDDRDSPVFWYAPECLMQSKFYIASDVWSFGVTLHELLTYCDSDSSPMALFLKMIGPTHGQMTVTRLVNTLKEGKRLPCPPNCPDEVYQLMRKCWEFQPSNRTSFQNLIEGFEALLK

With `Cc1cnc(Nc2cnn(C)c2)nc1-c1ccc(C(=O)NCC#N)cc1` [Example 11, N-(cyanomethyl)-4-(5-methyl-2-((1-methyl-1H-pyrazol-4-yl)amino)pyrimidin-4-yl)benzamide], the half-maximal inhibitory concentration (IC50) against JAK1 (setting [1]) stood at 19.6 nM; at JAK1 (setting [2]), 3.32 nM; against JAK2 (setting [3]) it was 46.5 nM; against JAK2 (setting [4]) it was 1.3 nM; at JAK2V617F it was 115 nM; against TYK2 (setting [5]), 83 nM.

Consider `Cc1cnc(Nc2cnn(C3CCN(C(=O)C(C)(C)C)CC3)c2)nc1-c1ccc(C(=O)NCC#N)cc1` [Example 21, N-(Cyanomethyl)-4-(5-methyl-2-((1-(1-pivaloylpiperidin-4-yl)-1H-pyrazol-4-yl)amino)pyrimidin-4-yl)benzamide], for which the half-inhibitory concentration (IC50) against JAK1 (setting [1]) is 10.9 nM; against JAK1 (setting [2]), 2.22 nM; against JAK2 (setting [3]), less than 0.25 nM; at JAK2 (setting [4]) it was less than 0.25 nM; against JAK2V617F, 3.55 nM; against TYK2 (IC50 TYK2 (10 nM) (Km ATP), TYK2 10 nM, Km ATP) it was 0.51 nM. In addition, half-maximal inhibition on TYK2 (setting [5]) (IC50) was put at 17.4 nM.

Turning to `C[C@@H](C#N)NC(=O)c1ccc(-c2nc(Nc3cnn(CC#N)c3)ncc2Cl)cc1` [Example 46, (S)-4-(5-Chloro-2-((1-(cyanomethyl)-1H-pyrazol-4-yl)amino)pyrimidin-4-yl)-N-(1-cyanoethyl)benzamide], the IC50 against JAK1 (setting [1]) worked out at 5.55 nM; against JAK2 (setting [3]), 25.2 nM; against JAK2V617F, 53.5 nM; on TYK2 (setting [5]) it was 42.7 nM.

As for `Cc1cnc(Nc2cnn(C3CCN(C)C(=O)C3)c2)nc1-c1ccc(C(=O)NCC#N)cc1` (centres unmarked) [Example 66, N-(cyanomethyl)-4-(5-methyl-2-((1-(1-methyl-2-oxopiperidin-4-yl)-1H-pyrazol-4-yl)amino)pyrimidin-4-yl)benzamide], the results for the concentration for half-maximal inhibition (IC50) at JAK1 (setting [1]), on JAK2V617F and against TYK2 (setting [5]) were 18.3 nM, 51.7 nM and 70 nM, respectively.

In the case of `CCC[C@@H](C#N)NC(=O)c1ccc(-c2nc(Nc3cnn(CCO)c3)ncc2C)cc1` [Example 192, (S)—N-(1-cyanobutyl)-4-(2-((1-(2-hydroxyethyl)-1H-pyrazol-4-yl)amino)-5-methylpyrimidin-4-yl)benzamide], the IC50 at JAK1 (setting [1]) was 2.45 nM; at JAK2 (setting [3]), 22.5 nM; on TYK2 (setting [5]), 14.7 nM.

As for `Cc1cnc(Nc2cnn(C3CCN(CCO)CC3)c2)nc1-c1ccc(C(=O)N[C@@H](C)C#N)cc1` [Example 204, (S)—N-(1-cyanoethyl)-4-(2-((1-(1-(2-hydroxyethyl)piperidin-4-yl)-1H-pyrazol-4-yl)amino)-5-methylpyrimidin-4-yl)benzamide], the IC50 against JAK1 (setting [1]) was found to be 1.88 nM; against JAK2 (setting [3]), 0.91 nM; against TYK2 (setting [5]), 33.3 nM.

For the molecule `C[C@@H](C#N)NC(=O)c1ccc(-c2nc(Nc3cnn(C4CC(C)(C)OC(C)(C)C4)c3)ncc2Cl)cc1` [Example 206, (S)-4-(5-Chloro-2-((1-(2,2,6,6-tetramethyltetrahydro-2H-pyran-4-yl)-1H-pyrazol-4-yl)amino)pyrimidin-4-yl)-N-(1-cyanoethyl)benzamide], the results for the IC50 at JAK1 (setting [1]), at JAK2 (setting [3]) and at TYK2 (setting [5]) were 16.7 nM, less than 0.25 nM and 0.55 nM, respectively.

Consider `Cc1cnc(Nc2cnn(C3CCN(C(=O)CO)CC3)c2)nc1-c1ccc(C(=O)NCC#N)cc1` [Example 207, N-(cyanomethyl)-4-(2-((1-(1-(2-hydroxyacetyl)piperidin-4-yl)-1H-pyrazol-4-yl)amino)-5-methylpyrimidin-4-yl)benzamide], for which the half-maximal inhibitory concentration (IC50) on JAK1 (setting [1]) is 15.2 nM; against JAK2 (setting [3]), less than 0.25 nM; at TYK2 (setting [5]) it was 50.6 nM.

As for `Cc1cnc(Nc2cnn(C3CCC(O)CC3)c2)nc1-c1ccc(C(=O)N[C@@H](C)C#N)cc1` (stereo partly drawn) [Example 209, (S)—N-(1-cyanoethyl)-4-(2-((1-(4-hydroxycyclohexyl)-1H-pyrazol-4-yl)amino)-5-methylpyrimidin-4-yl)benzamide], the half-maximal inhibitory concentration (IC50) was 14.3 nM against JAK1 (setting [1]), less than 0.25 nM against JAK2 (setting [3]) and 9.11 nM on TYK2 (setting [5]).

With `CC[C@@H](C#N)NC(=O)c1ccc(-c2nc(Nc3cnn(C4CCCNC4)c3)ncc2C)cc1` (stereo partly drawn) [Example 210, N—((S)-1-cyanopropyl)-4-(5-methyl-2-((1-(piperidin-3-yl)-1H-pyrazol-4-yl)amino)pyrimidin-4-yl)benzamide], the IC50 came to 11.4 nM on JAK1 (setting [1]), 2.39 nM against JAK2 (setting [3]) and 88.2 nM at TYK2 (setting [5]).

For the molecule `CC[C@@H](C#N)NC(=O)c1ccc(-c2nc(Nc3cnn(C4CCCN(C)C4)c3)ncc2C)cc1` (stereo partly drawn) [Example 211, N—((S)-1-cyanopropyl)-4-(5-methyl-2-((1-(1-methylpiperidin-3-yl)-1H-pyrazol-4-yl)amino)pyrimidin-4-yl)benzamide], the concentration for half-maximal inhibition (IC50) worked out at 20.5 nM against JAK1 (setting [1]), 0.66 nM against JAK2 (setting [3]) and 58.1 nM at TYK2 (setting [5]).

For the molecule `Cc1cnc(Nc2cnn(C3CCNCC3)c2)nc1-c1ccc(C(=O)NCC#N)cc1` [Example 212, N-(cyanomethyl)-4-(5-methyl-2-((1-(piperidin-4-yl)-1H-pyrazol-4-yl)amino)pyrimidin-4-yl)benzamide], the IC50 on JAK1 (setting [1]) was determined as 7.81 nM; on JAK2 (setting [3]) it was 0.47 nM; at TYK2 (setting [5]), 76.4 nM.

As to `C[C@@H](C#N)NC(=O)c1ccc(-c2nc(Nc3cnn(C4CCN(C(=O)CO)CC4)c3)ncc2Cl)cc1` [Example 214, (S)-4-(5-chloro-2-((1-(1-(2-hydroxyacetyl)piperidin-4-yl)-1H-pyrazol-4-yl)amino)pyrimidin-4-yl)-N-(1-cyanoethyl)benzamide], the 50% inhibitory concentration (IC50) was 15.6 nM against JAK1 (setting [1]), less than 0.25 nM against JAK2 (setting [3]) and 59.6 nM on TYK2 (setting [5]).

Take `Cc1cnc(Nc2cnn(CCC#N)c2)nc1-c1ccc(C(=O)N[C@@H](C)C#N)cc1` [Example 216, (S)—N-(1-cyanoethyl)-4-(2-((1-(2-cyanoethyl)-1H-pyrazol-4-yl)amino)-5-methylpyrimidin-4-yl)benzamide]: the half-maximal inhibitory concentration (IC50) on JAK1 (setting [1]) amounted to 4.88 nM; at JAK2 (setting [3]) it was 40.9 nM; against TYK2 (setting [5]), 74 nM.

Take `CC[C@@H](C#N)NC(=O)c1ccc(-c2nc(Nc3cnn(CCC#N)c3)ncc2C)cc1` [Example 217, (S)-4-(2-((1-(2-cyanoethyl)-1H-pyrazol-4-yl)amino)-5-methylpyrimidin-4-yl)-N-(1-cyanopropyl)benzamide]: the concentration for half-maximal inhibition (IC50) on JAK1 (setting [1]) amounted to 2.71 nM; at JAK2 (setting [3]), 39.8 nM; at TYK2 (setting [5]), 40.9 nM.

Consider `N#CCNC(=O)c1ccc(-c2nc(Nc3cnn(C4CCN(C(=O)CO)CC4)c3)ncc2Cl)cc1` [Example 218, 4-(5-Chloro-2-((1-(1-(2-hydroxyacetyl)piperidin-4-yl)-1H-pyrazol-4-yl)amino)pyrimidin-4-yl)-N-(cyanomethyl)benzamide], for which the IC50 was 13 nM at JAK1 (setting [1]), less than 0.25 nM at JAK2 (setting [3]) and 58 nM on TYK2 (setting [5]).

As for `COC[C@@H](C#N)NC(=O)c1ccc(-c2nc(Nc3cnn(CCO)c3)ncc2C)cc1` [Example 221, (R)—N-(1-cyano-2-methoxyethyl)-4-(2-((1-(2-hydroxyethyl)-1H-pyrazol-4-yl)amino)-5-methylpyrimidin-4-yl)benzamide], the IC50 came out at 10.4 nM against JAK1 (setting [1]), 54.8 nM on JAK2 (setting [3]) and 62.3 nM against TYK2 (setting [5]).

Turning to `Cc1cnc(Nc2cnn(C3C[C@@H](C)N[C@H](C)C3)c2)nc1-c1ccc(C(=O)N[C@@H](C)C#N)cc1` (stereo partly drawn) [Example 230, N—((S)-1-cyanoethyl)-4-(2-((1-(trans-2,6-dimethylpiperidin-4-yl)-1H-pyrazol-4-yl)amino)-5-methylpyrimidin-4-yl)benzamide], the IC50 against JAK1 (setting [1]) was determined as 14.2 nM; at JAK2 (setting [3]), 0.71 nM; against TYK2 (setting [5]), 24.2 nM.

For `Cc1cnc(Nc2cnn([C@@H]3C[C@@H](C)N[C@@H](C)C3)c2)nc1-c1ccc(C(=O)N[C@@H](C)C#N)cc1` [Example 231, N—((S)-1-cyanoethyl)-4-(2-((1-((2S,4s,6R)-2,6-dimethylpiperidin-4-yl)-1H-pyrazol-4-yl)amino)-5-methylpyrimidin-4-yl)benzamide], the half-maximal inhibitory concentration (IC50) on JAK1 (setting [1]) came to 80.6 nM; against JAK2 (setting [3]), 1.63 nM; against TYK2 (setting [5]) it was 245 nM.

For the molecule `Cc1cnc(Nc2cnn([C@H]3C[C@@H](C)N[C@@H](C)C3)c2)nc1-c1ccc(C(=O)N[C@@H](C)C#N)cc1` [Example 232, N—((S)-1-cyanoethyl)-4-(2-((1-((2S,4r,6R)-2,6-dimethylpiperidin-4-yl)-1H-pyrazol-4-yl)amino)-5-methylpyrimidin-4-yl)benzamide], the IC50 stood at 9.9 nM against JAK1 (setting [1]), 0.43 nM at JAK2 (setting [3]) and 2.97 nM against TYK2 (setting [5]).

For orientation: IC50 means the concentration that gives 50% inhibition. The low end stands for inhibition by little substance, the high end for a need for much substance.

The values are drawn from US12595253B2, “Benzamides of pyrazolylamino-pyrimidinyl derivatives, and compositions and methods thereof” (LYNK PHARMACEUTICALS CO. LTD., priority 2019, dated 2026).
